Legend:
Crimson seedless grapes [1] = test: grape coloring field study, ABA with or without Brij 98; assay type: in vivo; settings: for Harvest yield (%): harvest at 64 days after treatment, yield percent with sufficient color
Protocol: A grape coloring field study was conducted at Caruthers, Calif. ABA alone at 100 or 200 ppm or its combination with 0.05% Brij 98 was foliar applied to Crimson seedless grapes. Number of clusters with color was counted on a weekly basis, beginning at 21 days after treatment. Percentage of clusters with color was calculated. Grape yield was harvested at 64 days after treatment.
(§1) All experiments were conducted using a randomized complete block experimental design. Data were analyzed by analysis of variance. Duncan's new multiple range tests at α-005 were used for mean separations.
The effect of 0.05% Brij 98 on ABA (100 or 200 ppm) performance in grape coloration was examined in the field (Table 12). Addition of Brij 98 increased the percent of clusters with color for ABA at 100 or 200 ppm after application and increased the harvest yield percent with sufficient color. Treatment with 200 ppm ABA had more colored clusters and yield.

Crimson seedless grapes [2] = test: grape coloring field study, ABA with or without Latron B-1956; assay type: in vivo; settings: for Harvest yield (%): harvest at 64 days after treatment, yield percent with sufficient color
Protocol: A grape coloring field study was conducted at Caruthers, Calif., ABA alone at 100 or 200 ppm or its combination with 0.05% Latron B-1956 was foliar applied to Crimson seedless grapes. Number of clusters, with color was counted on a weekly basis, beginning at 21 days after treatment. Percentage of clusters with color was calculated. Grape yield was harvested at 64 days after treatment.
as §1
The effect of 0.05% Latron B-1956 on ABA (100 or 200 ppm) performance in grape coloration was examined (Table 15). Addition of Latron B-1956 increased the percent clusters with color for ABA at 100 or 200 ppm after application and increased the harvest yield percent with sufficient color. ABA at 200 ppm with or without Latron 13-1956 had more color and greater yield than at 100 ppm.

[3] = system: tomato leaf transpiration; test: tomato leaf transpiration inhibition bioassay; assay type: in vivo, Tomato (variety: Rutgers)
From the text: The compositions of the present invention improve ABA effectiveness by incorporating a surfactant, and optionally a nitrogen-containing fertilizer together with an effective amount of the plant growth regulator abscisic acid (S-ABA; ABA; S-(+)-abscisic acid; +-ABA, (+)-(S)-cis, trans-abscisic acid, (+)-(S)-cis,trans-ABA; S-ABA; (S)-5-(1-hydroxy-2,6,6,-trimethyl-4-oxo-2-cyclohexen-1-yl)-3-methyl-(2Z,4E)-pentadienoic acid; CAS registry no, [21293-29-8]). ABA effectiveness may be measured experimentally by quantifying the inhibition of transpiration in tomato leaves. This is a reliable laboratory bioassay of the level of ABA activity.
Preparation of plant specimens for use in the treatment studies of the examples described was carried out as follows. Tomato (variety: Rutgers) seeds were sown in an 18-cell flat filled with Promix PGX (available from Premier Horticulture Inc. Quakertown, Pa.) and grown for 3 weeks to allow for germination and initial growth. Plants were then transplanted into pots (18 cm in diameter and 18 cm in height), filled with Promix BX (available from Premier Horticulture Inc. Quakertown, Pa.), and grown for one or two more weeks before treatment, depending on temperature and available light. Plants received daily irrigation and weekly fertilizer (1 g/L all purpose fertilizer 20-20-20, available from The Scotts Company, Marysville, Ohio).
All treatment solutions were prepared with distilled water, ABA (95% active ingredient) is available from Lomon BioTechnology Co., Ltd. (Shichuan, China). […]
Unless otherwise specified, when a surfactant was employed, it was incorporated into the 250-ppm ABA treatment solution at a concentration of 0.05% to 0.5% (v/v).
ABA solutions and blank treatments were applied to the aerial parts of tomato plant leaves at the rate of 20 mL per 6 plants. Plants were then placed in a transparent chamber with humidity controlled within the range of 40 to 60% relative humidity. Leaf transpiration rates were measured at 1, 2 and 3 days; at 1, 2, 3 and 4 days; or at 1, 2, 3, 4 and 7 days after treatment. Measurements were conducted using a LI-1600 Steady State Porameter (LI-Cor, Lincoln, Nebr.). Each day the transpiration rate of the plants of each treatment group was normalized to the percentage of the transpiration rate of untreated plants (plants sprayed with water only) in order to control for day-to-day variability caused by changes of environmental conditions such as light intensity and temperature. In some cases, data of each plant was averaged over a 3-day period to balance the short term and long-term effect of ABA on tomato leaf transpiration as well as to control for experimental variability.
as §1

[4] = 100 ppm ABA foliar applied, 21 days after application
[5] = 100 ppm ABA foliar applied, 27 days after application
[6] = 100 ppm ABA foliar applied, 35 days after application
[7] = 100 ppm ABA foliar applied, 43 days after application
[8] = 100 ppm ABA foliar applied, 50 days after application
[9] = 100 ppm ABA foliar applied, 56 days after application
[10] = 100 ppm ABA foliar applied, 62 days after application
[11] = 100 ppm ABA foliar applied, 64 days after application
[12] = 200 ppm ABA foliar applied, 21 days after application
[13] = 200 ppm ABA foliar applied, 27 days after application
[14] = 200 ppm ABA foliar applied, 35 days after application
[15] = 200 ppm ABA foliar applied, 43 days after application
[16] = 200 ppm ABA foliar applied, 50 days after application
[17] = 200 ppm ABA foliar applied, 56 days after application
[18] = 200 ppm ABA foliar applied, 62 days after application
[19] = 200 ppm ABA foliar applied, 64 days after application

## (S)-5-(1-hydroxy-2,6,6,-trimethyl-4-oxo-2-cyclohexen-1-yl)-3-methyl-(2Z,4E)-pentadienoic acid [ABA]
Crimson seedless grapes [1]; [4]
  % clusters with color: 1.8%
Crimson seedless grapes [1]; [5]
  % clusters with color: 2.7%
Crimson seedless grapes [1]; [6]
  % clusters with color: 5.7%
Crimson seedless grapes [1]; [7]
  % clusters with color: 7.5%
Crimson seedless grapes [1]; [8]
  % clusters with color: 9.4%
Crimson seedless grapes [1]; [9]
  % clusters with color: 26.1%
Crimson seedless grapes [1]; [10]
  % clusters with color: 26.2%
Crimson seedless grapes [1]; [11]
  % clusters with color: 31.2%
Crimson seedless grapes [1]; 100 ppm ABA foliar applied
  Harvest yield (%): 25.5%
Crimson seedless grapes [1]; [12]
  % clusters with color: 7.0%
Crimson seedless grapes [1]; [13]
  % clusters with color: 10.7%
Crimson seedless grapes [1]; [14]
  % clusters with color: 17.3%
Crimson seedless grapes [1]; [15]
  % clusters with color: 20.5%
Crimson seedless grapes [1]; [16]
  % clusters with color: 22.7%
Crimson seedless grapes [1]; [17]
  % clusters with color: 47.9%
Crimson seedless grapes [1]; [18]
  % clusters with color: 50.3%
Crimson seedless grapes [1]; [19]
  % clusters with color: 56.4%
Crimson seedless grapes [1]; 200 ppm ABA foliar applied
  Harvest yield (%): 49.1%
Crimson seedless grapes [2]; [4]
  % clusters with color: 1.8%
Crimson seedless grapes [2]; [5]
  % clusters with color: 2.7%
Crimson seedless grapes [2]; [6]
  % clusters with color: 5.7%
Crimson seedless grapes [2]; [7]
  % clusters with color: 7.5%
Crimson seedless grapes [2]; [8]
  % clusters with color: 9.4%
Crimson seedless grapes [2]; [9]
  % clusters with color: 26.1%
Crimson seedless grapes [2]; [10]
  % clusters with color: 26.2%
Crimson seedless grapes [2]; [11]
  % clusters with color: 31.2%
Crimson seedless grapes [2]; 100 ppm ABA foliar applied
  Harvest yield (%): 25.5%
Crimson seedless grapes [2]; [12]
  % clusters with color: 7.0%
Crimson seedless grapes [2]; [13]
  % clusters with color: 10.7%
Crimson seedless grapes [2]; [14]
  % clusters with color: 17.3%
Crimson seedless grapes [2]; [15]
  % clusters with color: 20.5%
Crimson seedless grapes [2]; [16]
  % clusters with color: 22.7%
Crimson seedless grapes [2]; [17]
  % clusters with color: 47.9%
Crimson seedless grapes [2]; [18]
  % clusters with color: 50.3%
Crimson seedless grapes [2]; [19]
  % clusters with color: 56.4%
Crimson seedless grapes [2]; 200 ppm ABA foliar applied
  Harvest yield (%): 49.1%
[3]; 125 ppm ABA, average of first 3 days after treatment
  Transpiration rate (% of control): 96 % of control
[3]; 250 ppm ABA or ABA ammonium salt, 1 day after treatment (Table 7)
  Transpiration rate (% of control): 73 % of control
[3]; 250 ppm ABA or ABA ammonium salt, 2 days after treatment (Table 7)
  Transpiration rate (% of control): 76 % of control
[3]; 250 ppm ABA or ABA ammonium salt, 3 days after treatment (Table 7)
  Transpiration rate (% of control): 94 % of control
[3]; 250 ppm ABA or ABA ammonium salt, average of days 1-3 after treatment (Table 7)
  Transpiration rate (% of control), Average: 81 % of control
[3]; 250 ppm ABA or salt at rate equivalent to 250 ppm ABA, 1 day after treatment (Table 8)
  Transpiration rate (% of control): 71 % of control
[3]; 250 ppm ABA or salt at rate equivalent to 250 ppm ABA, 2 days after treatment (Table 8)
  Transpiration rate (% of control): 75 % of control
[3]; 250 ppm ABA or salt at rate equivalent to 250 ppm ABA, 3 days after treatment (Table 8)
  Transpiration rate (% of control): 88 % of control
[3]; 250 ppm ABA or salt at rate equivalent to 250 ppm ABA, average of days 1-3 (Table 8)
  Transpiration rate (% of control), Average: 78 % of control
[3]; 250 ppm ABA or salt at rates equivalent to 250 ppm ABA, 1 day after treatment (Table 10)
  Transpiration rate (% of control): 59 % of control
[3]; 250 ppm ABA or salt at rates equivalent to 250 ppm ABA, 2 days after treatment (Table 10)
  Transpiration rate (% of control): 71 % of control
[3]; 250 ppm ABA or salt at rates equivalent to 250 ppm ABA, 3 days after treatment (Table 10)
  Transpiration rate (% of control): 77 % of control
[3]; 250 ppm ABA or salt at rates equivalent to 250 ppm ABA, average of days 1-3 (Table 10)
  Transpiration rate (% of control), Average: 69 % of control
[3]; 250 ppm ABA, 1 day after treatment (Table 2)
  Transpiration rate (% of control): 76 % of control
[3]; 250 ppm ABA, 1 day after treatment (Table 5)
  Transpiration rate (% of control): 82 % of control
[3]; 250 ppm ABA, 1 day after treatment (Table 6)
  Transpiration rate (% of control): 71 % of control
[3]; 250 ppm ABA, 1 day after treatment (Table 11)
  Transpiration rate (% of control): 83 % of control
[3]; 250 ppm ABA, 1 day after treatment (Table 13)
  Transpiration rate (% of control): 74 % of control
[3]; 250 ppm ABA, 1 day after treatment (Table 14)
  Transpiration rate (% of control): 74 % of control
[3]; 250 ppm ABA, 2 days after treatment (Table 2)
  Transpiration rate (% of control): 99 % of control
[3]; 250 ppm ABA, 2 days after treatment (Table 5)
  Transpiration rate (% of control): 91 % of control
[3]; 250 ppm ABA, 2 days after treatment (Table 6)
  Transpiration rate (% of control): 84 % of control
[3]; 250 ppm ABA, 2 days after treatment (Table 11)
  Transpiration rate (% of control): 85 % of control
[3]; 250 ppm ABA, 2 days after treatment (Table 14)
  Transpiration rate (% of control): 82 % of control
[3]; 250 ppm ABA, 3 days after treatment (Table 2)
  Transpiration rate (% of control): 93 % of control
[3]; 250 ppm ABA, 3 days after treatment (Table 5)
  Transpiration rate (% of control): 90 % of control
[3]; 250 ppm ABA, 3 days after treatment (Table 6)
  Transpiration rate (% of control): 86 % of control
[3]; 250 ppm ABA, 3 days after treatment (Table 11)
  Transpiration rate (% of control): 94 % of control
[3]; 250 ppm ABA, 3 days after treatment (Table 13)
  Transpiration rate (% of control): 95 % of control
[3]; 250 ppm ABA, 3 days after treatment (Table 14)
  Transpiration rate (% of control): 95 % of control
[3]; 250 ppm ABA, 4 days after treatment (Table 5)
  Transpiration rate (% of control): 100 % of control
[3]; 250 ppm ABA, 4 days after treatment (Table 6)
  Transpiration rate (% of control): 90 % of control
[3]; 250 ppm ABA, 4 days after treatment (Table 13)
  Transpiration rate (% of control): 100 % of control
[3]; 250 ppm ABA, 4 days after treatment (Table 14)
  Transpiration rate (% of control): 100 % of control
[3]; 250 ppm ABA, average of days 1-3 (Table 11)
  Transpiration rate (% of control), Average: 87 % of control
[3]; 250 ppm ABA, average of first 3 days after treatment (Table 1)
  Transpiration rate (% of control): 88 % of control
[3]; 250 ppm ABA, average of first 3 days after treatment (Table 3)
  Transpiration rate (% of control): 83 % of control
[3]; 250 ppm ABA, average of first 3 days after treatment (Table 4)
  Transpiration rate (% of control): 96.32 % of control
[3]; 250 ppm ABA, average of first 3 days after treatment (Table 9)
  Transpiration rate (% of control): 73 % of control
[3]; 500 ppm ABA, average of first 3 days after treatment
  Transpiration rate (% of control): 74 % of control
[3]; 1000 ppm ABA, average of first 3 days after treatment
  Transpiration rate (% of control): 68 % of control
[3]; calculated from linear regression of relative transpiration (3-day average) on log10 ABA concentration
  ABA concentrations to achieve 50% inhibition of transpiration: 3328 ppm

Reference: patent publication US20130123107A1, “Use of Adjuvants to Improve Abscisic Acid Performance” (Valent BioSciences Corporation, priority 2007, published 2013)
